The values below come from PMC9833666, “Designing and identifying β-hairpin peptide macrocycles with antibiotic potential” (Science Advances, 2023).

SMILES strings stand for the structures. Bridge positions count the residues as written; N and C are the ends. Peptide text beside a SMILES is read from it. A value given as a limit tells only on which side of the number the result lay.

The assay concerns Escherichia coli W3110. Type of assay: cell-based. The settings on record: for Ec W3110 MIC MH: E. coli W3110, MH medium; for Ec W3110 MIC RPMI: E. coli W3110, RPMI medium.

Consider `CC[C@H](C)[C@@H]1NC(=O)[C@H](CCCNC(=N)N)NC(=O)[C@H](C(C)C)NC(=O)CNC(=O)[C@H](CO)NC(=O)[C@H](CCCNC(=N)N)NC(=O)CNC(=O)[C@H](CC(N)=O)NC(=O)[C@H](CC(=O)O)NC(=O)[C@H](CC(C)C)NC(=O)[C@H](CCCNC(=N)N)NC(=O)[C@H](C(C)C)NC(=O)[C@H]([C@@H](C)O)NC(=O)[C@H](C(C)C)NC(=O)[C@@H](N)CSSC[C@@H](C(=O)O)NC(=O)[C@H](C(C)C)NC(=O)[C@H](CCC(N)=O)NC(=O)[C@H](C(C)C)NC(=O)[C@H](CO)NC1=O` [SyRA-13] (H-CVTVRLDNGRSGVRISVQVC-OH; disulfide 1-20), for which the “W3110 MIC” value is greater than 256 µg/mL.

Regarding `CC[C@H](C)[C@@H]1NC(=O)[C@H](CCCCN)NC(=O)[C@H](C(C)C)NC(=O)CNC(=O)[C@H](CCCNC(=N)N)NC(=O)[C@H](CCCNC(=N)N)NC(=O)[C@H](CCCNC(=N)N)NC(=O)[C@H](CC(=O)O)NC(=O)[C@H](CC(N)=O)NC(=O)[C@H](CC(C)C)NC(=O)[C@H](CCCNC(=N)N)NC(=O)[C@H]([C@@H](C)CC)NC(=O)[C@H]([C@@H](C)O)NC(=O)[C@H](C(C)C)NC(=O)[C@@H](N)CSSC[C@@H](C(=O)O)NC(=O)[C@H](C(C)C)NC(=O)[C@H](CCC(=O)O)NC(=O)[C@H](C(C)C)NC(=O)[C@H](CO)NC1=O` [SyRA-7] (H-CVTIRLNDRRRGVKISVEVC-OH; disulfide 1-20), the “W3110 MIC” value is greater than 256 µg/mL.

`CC(C)C[C@@H]1NC(=O)[C@H](CCCNC(=N)N)NC(=O)[C@H](C(C)C)NC(=O)[C@H]([C@@H](C)O)NC(=O)[C@H](CC(C)C)NC(=O)[C@@H](N)CSSC[C@@H](C(=O)O)NC(=O)[C@H](C(C)C)NC(=O)[C@H](CCC(N)=O)NC(=O)[C@H](C(C)C)NC(=O)[C@H](CO)NC(=O)[C@H](C(C)C)NC(=O)[C@H](CCCCN)NC(=O)[C@H](C(C)C)NC(=O)CNC(=O)[C@H](CCCNC(=N)N)NC(=O)[C@H](CCCNC(=N)N)NC(=O)[C@H](CCCNC(=N)N)NC(=O)[C@H](CC(N)=O)NC(=O)[C@H](CC(N)=O)NC1=O` [SySA-81] (H-CLTVRLNNRRRGVKVSVQVC-OH; disulfide 1-20; N-terminus and C-terminus assumed): the Ec W3110 MIC MH turned out to be 64 µg/mL, the Ec W3110 MIC RPMI turned out to be 32 µg/mL, the “W3110 MIC MH” value was found to be 64 µg/mL and the “W3110 MIC RPMI” value is 32 µg/mL.

Take `CC[C@H](C)[C@@H]1NC(=O)[C@H](CCCCN)NC(=O)[C@H](C(C)C)NC(=O)[C@H](CCCNC(=N)N)NC(=O)[C@H](CO)NC(=O)[C@H](CCCNC(=N)N)NC(=O)[C@H](CCCNC(=N)N)NC(=O)[C@H](CC(N)=O)NC(=O)[C@H](CC(=O)O)NC(=O)[C@H](C(C)C)NC(=O)[C@H](CCCNC(=N)N)NC(=O)[C@H]([C@@H](C)CC)NC(=O)[C@H]([C@@H](C)O)NC(=O)[C@H](CC(C)C)NC(=O)[C@@H](N)CSSC[C@@H](C(=O)O)NC(=O)[C@H](C(C)C)NC(=O)[C@H](CCC(=O)O)NC(=O)[C@H](CC(C)C)NC(=O)[C@H]([C@@H](C)O)NC1=O` [SyRA-4] (H-CLTIRVDNRRSRVKITLEVC-OH; disulfide 1-20): the “W3110 MIC” value is greater than 256 µg/mL.

`CC[C@H](C)[C@@H]1NC(=O)[C@H](CCCNC(=N)N)NC(=O)[C@H](C(C)C)NC(=O)[C@@H](N)CSSC[C@@H](C(=O)O)NC(=O)[C@H](C(C)C)NC(=O)[C@H](CCC(N)=O)NC(=O)[C@H](CC(C)C)NC(=O)[C@H]([C@@H](C)O)NC(=O)[C@H](C(C)C)NC(=O)[C@H](CCCCN)NC(=O)[C@H](C(C)C)NC(=O)[C@H](CCCNC(=N)N)NC(=O)[C@H](CCCNC(=N)N)NC(=O)[C@H](CCCNC(=N)N)NC(=O)[C@H](CCCNC(=N)N)NC(=O)[C@H](CC(N)=O)NC(=O)[C@H](CC(N)=O)NC(=O)[C@H](CC(C)C)NC(=O)[C@H](CCCNC(=N)N)NC1=O` [SySA-80] (H-CVRIRLNNRRRRVKVTLQVC-OH; disulfide 1-20; N-terminus and C-terminus assumed): the Ec W3110 MIC MH worked out at 16 µg/mL, the Ec W3110 MIC RPMI amounted to 16 µg/mL, the “W3110 MIC MH” value was 16 µg/mL and the “W3110 MIC RPMI” value was 16 µg/mL.

On to `CC[C@H](C)[C@@H]1NC(=O)[C@H](CCCNC(=N)N)NC(=O)[C@H](CC(C)C)NC(=O)[C@H](CCCNC(=N)N)NC(=O)[C@H](CO)NC(=O)[C@H](CCCNC(=N)N)NC(=O)[C@H](CCCNC(=N)N)NC(=O)[C@H](CC(=O)O)NC(=O)[C@H](CC(N)=O)NC(=O)[C@H](CC(C)C)NC(=O)[C@H](CCCNC(=N)N)NC(=O)[C@H](C(C)C)NC(=O)[C@H]([C@@H](C)O)NC(=O)[C@H](C(C)C)NC(=O)[C@@H](N)CSSC[C@@H](C(=O)O)NC(=O)[C@H](C(C)C)NC(=O)[C@H](CCC(=O)O)NC(=O)[C@H](CC(C)C)NC(=O)[C@H]([C@@H](C)O)NC1=O` [SyRA-15] (H-CVTVRLNDRRSRLRITLEVC-OH; disulfide 1-20), for which the “W3110 MIC” value is greater than 256 µg/mL.

Turning to `CC[C@H](C)[C@@H]1NC(=O)[C@H](CCCNC(=N)N)NC(=O)[C@@H](N)CSSC[C@@H](C(=O)O)NC(=O)[C@H](CCC(N)=O)NC(=O)[C@H](C(C)C)NC(=O)[C@H](CCC(=O)O)NC(=O)[C@H](CC(C)C)NC(=O)[C@H](CCCNC(=N)N)NC(=O)[C@H](CC(C)C)NC(=O)[C@H](CCCNC(=N)N)NC(=O)[C@H](CCCNC(=N)N)NC(=O)CNC(=O)[C@H](CCCNC(=N)N)NC(=O)[C@H](CC(N)=O)NC(=O)[C@H](CC(N)=O)NC(=O)[C@H](C(C)C)NC(=O)[C@H](CC(N)=O)NC(=O)[C@H](C(C)C)NC(=O)[C@H](CCCCN)NC1=O` [SySA-4] (H-CRIKVNVNNRGRRLRLEVQC-OH; disulfide 1-20; N-terminus and C-terminus assumed), the Ec W3110 MIC MH was found to be 256 µg/mL, the Ec W3110 MIC RPMI stood at 128 µg/mL and the “W3110 MIC RPMI” value is 128 µg/mL.

Take `CC[C@H](C)[C@@H]1NC(=O)[C@H](CCCNC(=N)N)NC(=O)[C@H](C(C)C)NC(=O)[C@H](CCCNC(=N)N)NC(=O)[C@@H](N)CSSC[C@@H](C(=O)O)NC(=O)[C@H](CCC(N)=O)NC(=O)[C@H](C(C)C)NC(=O)[C@H](CCC(N)=O)NC(=O)[C@H](CC(C)C)NC(=O)[C@H](CCCCN)NC(=O)[C@H](CC(C)C)NC(=O)[C@H]([C@@H](C)O)NC(=O)CNC(=O)CNC(=O)[C@H](CCCNC(=N)N)NC(=O)[C@H](CC(N)=O)NC(=O)[C@H](CC(=O)O)NC(=O)[C@H](C(C)C)NC(=O)[C@H](CC(N)=O)NC1=O` [SyRC-11] (H-CRVRINVDNRGGTLKLQVQC-OH; disulfide 1-20): the “W3110 MIC” value is greater than 256 µg/mL.

For `CC[C@H](C)[C@@H]1NC(=O)[C@H](CCCNC(=N)N)NC(=O)[C@H](C(C)C)NC(=O)[C@@H](N)CSSC[C@@H](C(=O)O)NC(=O)[C@H](C(C)C)NC(=O)[C@H](CCC(N)=O)NC(=O)[C@H](CC(C)C)NC(=O)[C@H](CO)NC(=O)[C@H](C(C)C)NC(=O)[C@H](CCCCN)NC(=O)[C@H](CC(C)C)NC(=O)CNC(=O)[C@H](CCCNC(=N)N)NC(=O)[C@H](CCCNC(=N)N)NC(=O)[C@H](CCCNC(=N)N)NC(=O)[C@H](CC(N)=O)NC(=O)[C@H](CC(N)=O)NC(=O)[C@H](CC(C)C)NC(=O)[C@H](CCCNC(=N)N)NC1=O` [SySA-40] (H-CVRIRLNNRRRGLKVSLQVC-OH; disulfide 1-20; N-terminus and C-terminus assumed), the Ec W3110 MIC MH came to 32 µg/mL, the Ec W3110 MIC RPMI was found to be 8 µg/mL, the “W3110 MIC MH” value came to 32 µg/mL and the “W3110 MIC RPMI” value was found to be 8 µg/mL.

As for `CC[C@H](C)[C@@H]1NC(=O)[C@H](CCCNC(=N)N)NC(=O)[C@H](C(C)C)NC(=O)[C@H](CCCNC(=N)N)NC(=O)[C@H](CO)NC(=O)CNC(=O)CNC(=O)[C@H](CC(N)=O)NC(=O)[C@H](CC(N)=O)NC(=O)[C@H](C(C)C)NC(=O)[C@H](CCCNC(=N)N)NC(=O)[C@H]([C@@H](C)CC)NC(=O)[C@H](CCCNC(=N)N)NC(=O)[C@H](CC(C)C)NC(=O)[C@@H](N)CSSC[C@@H](C(=O)O)NC(=O)[C@H](C(C)C)NC(=O)[C@H](CCC(=O)O)NC(=O)[C@H](CC(C)C)NC(=O)[C@H](CO)NC1=O` [SyRA-10] (H-CLRIRVNNGGSRVRISLEVC-OH; disulfide 1-20), the “W3110 MIC” value is greater than 256 µg/mL.

For `CC[C@H](C)[C@@H]1NC(=O)[C@H](CCCNC(=N)N)NC(=O)[C@H](CC(C)C)NC(=O)CNC(=O)[C@H](CCCNC(=N)N)NC(=O)[C@H](CCCNC(=N)N)NC(=O)[C@H](CCCNC(=N)N)NC(=O)[C@H](CC(N)=O)NC(=O)[C@H](CC(N)=O)NC(=O)[C@H](CC(C)C)NC(=O)[C@H](CCCNC(=N)N)NC(=O)[C@H]([C@@H](C)CC)NC(=O)[C@H](CCCNC(=N)N)NC(=O)[C@H](CC(C)C)NC(=O)[C@@H](N)CSSC[C@@H](C(=O)O)NC(=O)[C@H](C(C)C)NC(=O)[C@H](CCC(N)=O)NC(=O)[C@H](CC(C)C)NC(=O)[C@H](CO)NC1=O` [SySA-72] (H-CLRIRLNNRRRGLRISLQVC-OH; disulfide 1-20; N-terminus and C-terminus assumed), the Ec W3110 MIC MH came to 32 µg/mL, the Ec W3110 MIC RPMI was determined as 8 µg/mL, the “W3110 MIC MH” value is 32 µg/mL and the “W3110 MIC RPMI” value was found to be 8 µg/mL.

Take `CC[C@H](C)[C@@H]1NC(=O)[C@H](CCCNC(=N)N)NC(=O)[C@H](C(C)C)NC(=O)[C@@H](N)CSSC[C@@H](C(=O)O)NC(=O)[C@H](C(C)C)NC(=O)[C@H](CCC(N)=O)NC(=O)[C@H](C(C)C)NC(=O)[C@H](CO)NC(=O)[C@H](C(C)C)NC(=O)[C@H](CCCCN)NC(=O)[C@H](C(C)C)NC(=O)[C@H](CCCNC(=N)N)NC(=O)[C@H](CCCNC(=N)N)NC(=O)[C@H](CCCNC(=N)N)NC(=O)[C@H](CCCNC(=N)N)NC(=O)[C@H](CC(N)=O)NC(=O)[C@H](CC(N)=O)NC(=O)[C@H](C(C)C)NC(=O)[C@H](CCCNC(=N)N)NC1=O` [SySA-62] (H-CVRIRVNNRRRRVKVSVQVC-OH; disulfide 1-20; N-terminus and C-terminus assumed): the Ec W3110 MIC MH worked out at 32 µg/mL, the Ec W3110 MIC RPMI was determined as 16 µg/mL, the “W3110 MIC MH” value was found to be 32 µg/mL and the “W3110 MIC RPMI” value is 16 µg/mL.
